Test results reported in patent US6927215B2, “Heterocyclic fluoroalkenyl thioethers and the use thereof as pesticides (I)” (Bayer Cropscience AG, priority 2000, dated 2005).

Assays:
[1] = logP (pH2); format: physicochemical
[2] = test system: Boophilus microplus resistant (SP-resistant Parkhurst strain); test: Test with Boophilus microplus resistant (SP-resistant Parkhurst strain), injection, oviposition of fertile eggs; format: in vivo
Experimental: (§1) Test with Boophilus Microplus Resistant (SP—Resistant Parkhurst Strain)
(§2) • Test animals: adult females which have sucked themselves full • Solvent: dimethyl sulphoxide
20 mg of active compound are dissolved in 1 ml of dimethyl sulphoxide, more dilute concentrations are prepared by dilution in the same solvent.
The test is carried out in 5 replications. 1 μl of the solutions is injected into the abdomen, and the animals are transferred into dishes and kept in a climatized room. After 7 days, the activity is checked by examination for oviposition of fertile eggs. Eggs whose fertility is not visible from the outside are stored in glass tubes in a controlled-environment cabinet until the larvae have hatched. An activity of 100% means that no tick has produced any fertile eggs.

[3] = test system: Trichinella spiralis larvae; test: Trichinella spiralis in-vitro; format: cell-based; set-up: key: 0 means no activity; 1 means weak activity; 2 means good activity; 3 means full activity; conditions: 5 days at 19° C.
Experimental: Trichinella spiralis In-vitro
• Test animals: Trichinella spiralis larvae • Solvent: dimethyl sulphoxide
Trichinella spiralis larvae are isolated from skeletal muscles and subcutaneous muscles of SPF/CFW1 mice and collected in aqueous 0.9% NaCl containing 20 μg of sisomycin/ml. Per determination, 20 larvae are incubated in 2 ml of a nutrient solution (20 g of Bacto Casitone/l, 10 g of yeast extract/l, 5 g of glucose/l, 0.8 g of KH2PO4/l, 0.8 g of K2HPO4; […] of sisomycin/ml and 1 μg of Canesten/ml; pH=7.2).
The incubation and the determination have been described in Martin et al., Pesticide Science (1996) 48, 343-349. 10 mg of the test compound are dissolved in 0.5 ml of the stated solvent, and such an amount of the resulting solution is added to the incubation medium that the desired concentration is reached. The controls contain only the solvent.
After an incubation time of 5 days at a temperature of 19° C., the experiment is terminated. The anthelmintic activity of a substance is categorized into 4 stages. 0 means no activity, 1 means weak activity, 2 means good activity and 3 means full activity (<50%, 50-75%, >75%, 100% of the larvae dead).

[4] = test system: Meloidogyne incognita egg/larvae; test: Meloidogyne test; format: in vivo; conditions: active compound concentration 20 ppm; lettuce
Experimental: • Solvent: 8 parts by weight of acetone • Emulsifier: 1 part by weight of alkylaryl polyglycol ether
To produce a suitable preparation of active compound, 1 part by weight of active compound is mixed with the stated amounts of solvent and emulsifier, and the concentrate is diluted with water to the desired concentration.
Containers are filled with sand, solution of active compound, Meloidogyne incognita egg/larvae suspension and lettuce seeds. The lettuce seeds germinate and the plants develop. On the roots, galls are formed.
After the desired period of time, the nematicidal action is determined in % using gall formation as a measure. 100% means that no galls were found; 0% means that the number of galls on the treated plants corresponds to that of the untreated control.

[5] = test system: Boophilus microplus resistant (SP-resistant Parkhurst strain); test: Test with Boophilus microplus resistant (SP-resistant Parkhurst strain), dipping; format: in vivo; conditions: active compound concentration 100 ppm; dipped for 1 minute
Experimental: as §1, §2
(§3) 20 mg of active compound are dissolved in 1 ml of dimethyl sulphoxide, more dilute concentrations are prepared by dilution with distilled water.
10 adult Boophilus microplus res. are dipped for 1 minute into the preparation of active compound to be tested. The animals are transferred into plastic beakers and kept in a climatized room, and the kill rate is then determined.
100% means that all ticks have been killed; 0% means that none of the ticks have been killed.

[6] = test system: adult Musca domestica, Reichswald strain (OP, SP, carbamate-resistant); test: Test with flies (Musca domestica); format: in vivo; conditions: active compound concentration 100 ppm
Experimental: Test with Flies (Musca domestica)
• Test animals: adult Musca domestics, Reichswald strain (OP, SP, carbamate-resistant) • Solvent: dimethyl sulphoxide
as §3
2 ml of this active compound preparation are pipetted onto filter paper discs (Ø9.5 cm) in petri dishes of corresponding dimensions. After the filter discs have been dried, 25 test animals are transferred into the petri dishes, which are then covered.
After 1, 3, 5, 24 and 48 hours, the activity of the active compound preparation is determined. 100% means that all flies have been killed; 0% means that none of the flies have been killed.

[7] = test system: adults of Ctenocephalides felis; test: Test with cat fleas/oral uptake; format: in vivo; conditions: after 28 h
Experimental: Test with Cat Fleas/Oral Uptake
• Test animals: adults of Ctenocephalides felis • Solvent: dimethyl sulphoxide (DMSO)
To produce a suitable formulation, a suitable solution of active compound is prepared from 20 mg of active compound and 1 ml of DMSO. 15 μl of this formulation are added to 3 ml of citrated cattle blood and stirred.
10 unfed adult fleas (Ctenocephalides felis, strain “Georgi”) are placed into a chamber (Ø3.2 cm) whose top and bottom are closed with gauze. A metal cylinder whose underside is covered with parafilm is placed onto the chamber. The cylinder contains 3 ml of blood/active compound formulation which can be taken up by the fleas through the parafilm membrane. Whereas the blood is warmed to 37° C., the temperature in the area of the flea chambers is adjusted to 25° C. Controls are mixed with the same volume of DMSO, without addition of a compound. The determinations are carried out in triplicate.
After 28 h, the mortality in % (=dead fleas) is determined.
Compounds which effect an at least 25% kill of the fleas within 28 h are judged to be effective.

[8] = test system: caterpillars of the army worm (Spodoptera frugiperda); test: Spodoptera frugiperda test; format: in vivo; conditions: active compound concentration 0.1%; after 7 days
Experimental: Spodoptera frugiperda Test
(§4) • Solvent: 30 parts by weight of dimethylformamide • Emulsifier: 1 part by weight of alkylaryl polyglycol ether
(§5) To produce a suitable preparation of active compound, 1 part by weight of active compound is mixed with the stated amounts of solvent and emulsifier, and the concentrate is diluted with emulsifier-containing water to the desired concentration.
Cabbage leaves (Brassica oleracea) are treated by being dipped into the preparation of active compound of the desired concentration and are populated with caterpillars of the army worm (Spodoptera frugiperda) while the leaves are still moist.
After the desired period of time, the kill in % is determined. 100% means that all caterpillars have been killed; 0% means that none of the caterpillars have been killed.

[9] = test system: larvae of the mustard beetle (Phaedon cochleariae); test: Phaedon larvae test; format: in vivo; conditions: active compound concentration 0.1%; after 7 days
Experimental: as §4, §5
Cabbage leaves (Brassica oleracea) are treated by being dipped into the preparation of active compound of the desired concentration and are populated with larvae of the mustard beetle (Phaedon cochleariae) while the leaves are still moist.
After the desired period of time, the kill in % is determined. 100% means that all beetle larvae have been killed; 0% means that none of the beetle larvae have been killed.

[10] = test system: peach aphid (Myzus persicae); test: Myzus test; format: in vivo; conditions: active compound concentration 0.1%; after 6 days
Experimental: as §4, §5
Cabbage leaves (Brassica oleracea) which are heavily infested by the peach aphid (Myzus persicae) are treated by being dipped into the preparation of active compound of the desired concentration.
After the desired period of time, the kill in % is determined. 100% means that all aphids have been killed; 0% means that none of the aphids have been killed.

[11] = test system: Lucilia cuprina larvae; test: Blowfly larvae test (development-inhibitory action); format: in vivo
Experimental: Blowfly Larvae Test (Development-Inhibitory Action)
• Test animals: Lucilia cuprina larvae • Solvent: dimethyl sulphoxide
as §3
About 20 Lucilia cuprina larvae are introduced into a test tube which contains about 1 cm^3 of horse meat and 0.5 ml of the preparation of active compound to be tested. After 24 hours and 48 hours, the efficacy of the preparation of active compound is determined. The test tubes are transferred into a beaker whose bottom is covered with sand. After a further 2 days, the test tubes are removed and the pupae are counted.
The efficacy of the preparation of active compound is assessed by the number of flies that have hatched after 1.5 times the period of development of an untreated control. 100% means that no flies have hatched; 0% means that all flies have hatched normally.

[12] = test system: greenhouse red spider mite (Tetranychus urticae); test: Tetranychus test (OP-resistant/dip treatment); format: in vivo; conditions: active compound concentration 0.1%; after 7 days
Experimental: Tetranychus Test (OP-Resistant/Dip Treatment)
as §4, §5
Bean plants (Phaseolus vulgaris) which are heavily infested by all stages of the greenhouse red spider mite (Tetranychus urticae) are dipped into a preparation of active compound of the desired concentration.
After the desired period of time, the effect in % is determined. 100% means that all spider mites have been killed; 0% means that none of the spider mites have been killed.

[13] = 0.8 μg per animal, injection, after 7 days
[14] = 4 μg per animal, injection, after 7 days
[15] = 20 μg per animal, injection, after 7 days
[16] = active compound concentration 100 ppm
[17] = active compound concentration 4 ppm, injection, after 7 days
[18] = active compound concentration 20 ppm, injection, after 7 days
[19] = active compound concentration 20 ppm

| SMILES | logP (pH2) [1] | kill (no fertile eggs) [2, 13] | kill (no fertile eggs) [2, 14] | kill (no fertile eggs) [2, 15] | anthelmintic activity class (larvae dead) [3, 16] | kill (no fertile eggs) [2, 17] | kill (no fertile eggs) [2, 18] | kill (mortality) [7, 16] | kill (no fertile eggs) [2, 16] | kill (mortality) [7, 19] | kill (no flies hatched) [11, 16] | further results |
| --- | --- | --- | --- | --- | --- | --- | --- | --- | --- | --- | --- | --- |
| CC1SC(SCCCCC(F)=C(F)F)=NS1(=O)=O (racemic) [Example 9] | 3.24 |  |  |  |  |  |  |  |  |  |  |  |
| O=S1(=O)CCSC(SCCC=C(F)F)=N1 [Example 11] |  | 100% | 100% | 100% | no activity |  |  |  |  |  |  |  |
| O=S1(=O)CSC(SCCC=C(F)F)=N1 [Example 2] | 2.24 |  |  |  |  | 100% | 100% | 100% |  |  |  | nematicidal action (activity) using gall formation as a measure [4]: 100%; kill [5]: 90%; kill [6]: 60%; kill [8]: 100%; kill [9]: 100%; kill [10]: 100% |
| O=S1(=O)CCCSC(SCCCCC=C(F)F)=N1 [Example 16] |  | 100% | 100% | 100% | no activity |  |  | 91% | 100% | 89% |  |  |
| CC1SC(SCCC=C(F)F)=NS1(=O)=O (racemic) [Example 8] |  | 100% | 100% | 100% | no activity |  |  | 91% | 100% | 79% | 100% |  |
| O=S1(=O)CSC(SCCCCC(F)=C(F)F)=N1 [Example 3] | 2.93 |  |  |  |  | 100% | 100% |  |  |  | 100% | kill (no flies hatched) [11, 19]: 100%; anthelmintic activity class (larvae dead) ([3]; active compound concentration 10 ppm): weak activity (1 means weak activity) |
| O=S1(=O)CSC(SCCC(F)=C(F)F)=N1 [Example 1, 5-(4,4,3-trifluorobutenylthio)-1,3,4-dithiazoline 3,3-dioxide] |  |  |  |  |  | 100% | 100% |  |  |  | 100% | nematicidal action (activity) using gall formation as a measure [4]: 100%; melting point: 50 °C; kill (no flies hatched) [11, 19]: 100% |
| O=S1(=O)CCCSC(SCCC(F)=C(F)F)=N1 [Example 13] |  | 100% | 100% | 100% |  |  |  |  |  |  |  |  |
| CC1SC(SCCCCC=C(F)F)=NS1(=O)=O (racemic) [Example 10] | 3.31 | 100% | 100% | 100% | no activity |  |  | 95% | 100% | 83% | 100% |  |
| O=S1(=O)CCSC(SCCCCC=C(F)F)=N1 [Example 6] |  | 100% | 100% | 100% | no activity |  |  | 95% | 100% | 73% | 100% |  |
| O=S1(=O)CSC(SCCCCC=C(F)F)=N1 [Example 4] | 2.99 |  |  |  | no activity | 100% | 100% | 100% |  |  |  | kill [5]: 100%; kill [12]: 100%; kill [6]: 40%; kill [9]: 100%; kill [10]: 100% |
